{"source": "patent US20230321063A1", "about": "“COMPOSITIONS AND METHODS TO REDUCE NEUROINFLAMMATION” (Seattle Children's Hospital d/b/a Seattle Children's …, priority 2020, published 2023)", "key": {"[1]": {"tested_on": "Ndufs4(KO) mice", "test": "Isoflurane induced hyperlactemia assay", "format": "in vivo, mouse", "conditions": "0.4% isoflurane for 30 min, P50, 300 mg/kg/d", "description": "Isoflurane induced hyperlactemia assays. All of these experiments were performed at P50. Mice were subject to normal daily monitoring (see survival studies) up until P50. At P50, baseline blood glucose, lactate, and […] (β-HB) levels were measured using point-of-care meters using the tail-prick method, as described. Mice were then immediately exposed to 0.4% isoflurane or carrier gas only (100% oxygen) for 30 min. At the 30 minutes, blood glucose, lactate, and β-HB were measured again."}, "[2]": {"tested_on": "control and Ndufs4(KO) animals", "test": "Observation of coat color under treatment", "format": "in vivo, mouse", "conditions": "higher doses (of 100, 200, 300 mg/kg/day) in chow", "description": "To directly test this model, Ndufs4(KO) and control animals were treated with 100, 200, or 300 mg/kg/day pexidartinib in normal mouse chow (dosing is approximated based on food consumption, see Experimental Methods in Example 1)."}, "[3]": {"tested_on": "Ndufs4(KO) mice", "test": "Minimum Alveolar Concentration (MAC) of isoflurane associated with anesthesia", "format": "in vivo, mouse", "conditions": "300 mg/kg/day, P30 Ndufs4(KO) animals", "from_the_text": "In particular embodiments, effective amounts can be evidenced by reduced sensitivity to volatile anesthetics. Sensitivity to volatile anesthetics can be determined by measuring the minimum alveolar concentration (MAC). MAC provides a correlation between the dose of an anesthetic and immobility. (Lobo et al. (2020) StatPearls, World Wide Web at ncbi.nlm.nih.gov/books/NBK532974/). […] MAC can be expressed as volumes percent of alveolar (end-tidal) gas at one atmosphere pressure at sea level (i.e., 760 mm Hg). In particular embodiments, volatile anesthetics can include nitrous oxide, isoflurane, desflurane, halothane, and sevoflurane. Mice can be exposed to an anesthetic by using a vaporizer at a particular flow rate (e.g., 3-4 liters/min) through a humidifier in-line. […] In particular embodiments, sensitivity to volatile anesthetics can be reduced in a subject administered a composition including a therapeutically effective amount of an inhibitor of the disclosure, as compared to sensitivity to volatile anesthetics in the subject not administered the composition, as measured by a relevant test such as MAC.\nTo test whether leukocyte depletion might impact VA hypersensitivity, the Minimum Alveolar Concentration (MAC) of isoflurane associated with anesthesia in control and 300 mg/kg/day pexidartinib treated Ndufs4(KO) animals was assessed (see Experimental Methods in Example 1 for details). […]"}, "[4]": {"tested_on": "Ndufs4(KO) mouse model of LS", "test": "Survival studies and overall disease course in Ndufs4(KO) mice", "format": "in vivo", "description": "Ndufs4(+/−) mice were bred to produce Ndufs4(KO) (Ndufs4(−/−)) offspring. Mice were weaned at 20-21 days of age. Ndufs4(KO) animals were housed with a minimum of one control littermate for warmth and stimulation. Mice were weighed, and health assessed, a minimum of 3 times per week, every other day (daily for IP injected mice, see herein). Where longitudinal blood point-of-care data was collected, this was performed during these health checks. Wetted chow in a dish on the bottom of each cage, and in-cage water bottles, were provided to all cages housing Ndufs4(KO) mice following the onset of disease so that the ability to find or reach food or water was not a limiting factor for survival.\nDoses of each drug was based on published data for use in animals. […] Blood and tissue concentrations reached biologically relevant levels for each of the tested inhibitors.\nPharmacologic interventions and chow formulation. Standard mouse chow was ground to a power and mixed with drugs at the doses desired (see FIGS. 4A-4L). 300 mL of 1% agar melted in sterile water was added per kilogram of powdered chow and the mixture was pelleted and baked at 37° C. for 3-5 hours to dry. Pellets were then stored at 4° C. for short term (up to 90 days) or −20° C. for long-term (up to 6 months) storage. It was previously shown that this processing had no impact on animal health or survival (Johnson et al. Front Genet. 2015; 6:247). […]\nTo determine whether the benefits of mTOR inhibition in Ndufs4(KO) model result from disruption of PI3K mediated signaling, animals were treated from weaning (post-natal day 21, P21) with potent, orally available, isoform specific inhibitors of the catalytic subunits of PI3K: BYL719, GSK2636771, CAL-101, and IPI-549, inhibitors of p110α, p110β, p110δ, and p110γ, respectively."}}, "note": "Entries after “also recorded” stand apart in the source; their conditions may differ.", "data": [{"smiles": "FC(F)(F)c1ccc(CNc2ccc(Cc3c[nH]c4ncc(Cl)cc34)cn2)cn1", "note": "[pexidartinib, 5-[(5-chloro-1H-pyrrolo[2,3-b]pyridin-3-yl)methyl]-N-[[6-(trifluoromethyl)pyridin-3-yl]methyl]pyridin-2-amine]", "values": [{"measurement": "blood lactate spike after isoflurane exposure", "setting": "[1]", "value": "fully suppressed this lactate spike"}, {"measurement": "coat/fur color", "setting": "[2]", "value": "turns fur white; also recorded: change in mouse coat color"}, {"measurement": "coat/fur color", "setting": "[2]; listed as Pexidartinib", "value": "caused animal fur to whiten"}, {"measurement": "hypersensitivity to sedation by isoflurane (MAC)", "setting": "[3]", "value": "modest, but statistically significant, attenuation"}, {"measurement": "lifespan of treated Ndufs4(KO) animals relative to treated control mice", "setting": "[4]; 300 mg/kg/d, drug toxicity appears to limit lifespan", "value": "live as long as treated control mice"}, {"measurement": "impact on disease (overall) / disease or survival", "setting": "[4]; Ndufs4(KO) mice", "value": "dramatically attenuates disease"}, {"measurement": "survival", "setting": "[4]; Ndufs4(KO) mice vs untreated", "value": "dramatically extended survival"}, {"measurement": "extension of median survival", "setting": "[4]; Ndufs4(KO) mice, 300 mg/kg/day in chow", "value": 300, "unit": "%"}, {"measurement": "cause of death of control animals", "setting": "[4]; control animals on 300 mg/kg/d", "value": "died of unknown causes with no evident illness"}, {"measurement": "survival compared to untreated Ndufs4(KO) mice", "setting": "[4]; each of 100-300 mg/kg/day, dose-dependent", "value": "statistically significant increase"}, {"measurement": "overt signs of severe neurologic sequelae prior to death", "setting": "[4]; majority of high dose animals", "value": "did not show overt signs of severe neurologic sequelae prior to death"}]}]}
